From ChEMBL document CHEMBL1201862, “PubChem BioAssay data set” (2004) come the findings set out here.

In data set [1] the target is T1, Cytochrome P450 3A4 (Homo sapiens, UniProt P08684).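 Further: CYP3A4 tested as one member of a cytochrome P450 panel screen.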
Data set [2] deals with T2, Cytochrome P450 2C9 (Homo sapiens, UniProt P11712).
Data set [3] addresses T3, DNA repair and recombination protein RAD54-like (Homo sapiens, UniProt Q92698).
T3 sequence (Q92698 whole entry): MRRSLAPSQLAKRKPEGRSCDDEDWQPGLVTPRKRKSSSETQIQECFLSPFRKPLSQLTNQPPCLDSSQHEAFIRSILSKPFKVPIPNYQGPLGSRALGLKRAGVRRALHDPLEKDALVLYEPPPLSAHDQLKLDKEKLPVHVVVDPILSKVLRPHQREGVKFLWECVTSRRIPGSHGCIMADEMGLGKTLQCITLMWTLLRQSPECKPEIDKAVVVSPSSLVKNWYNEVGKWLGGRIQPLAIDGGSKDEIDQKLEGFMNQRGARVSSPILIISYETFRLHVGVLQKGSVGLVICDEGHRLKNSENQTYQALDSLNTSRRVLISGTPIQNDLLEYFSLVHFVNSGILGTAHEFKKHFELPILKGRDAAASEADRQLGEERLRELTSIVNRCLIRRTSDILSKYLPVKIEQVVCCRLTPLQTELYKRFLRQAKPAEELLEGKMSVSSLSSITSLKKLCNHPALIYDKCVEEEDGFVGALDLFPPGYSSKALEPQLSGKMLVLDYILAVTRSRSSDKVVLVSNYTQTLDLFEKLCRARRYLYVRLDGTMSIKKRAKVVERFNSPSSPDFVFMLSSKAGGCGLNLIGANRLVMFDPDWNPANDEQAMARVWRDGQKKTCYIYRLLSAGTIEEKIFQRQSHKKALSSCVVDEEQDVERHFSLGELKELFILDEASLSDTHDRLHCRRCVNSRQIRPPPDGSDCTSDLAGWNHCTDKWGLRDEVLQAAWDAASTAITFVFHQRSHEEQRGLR
Nature of the data set: inhibitors of human RAD54 branch migration, confirmation, biochemical, fluorescence, cherry-picked samples, dose series (AID 651657). The data set is classed as functional.

The target of another data set is T4, Cytochrome P450 1A2 (Homo sapiens, UniProt P05177).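 Further: PubChem cytochrome P450 panel assay, CYP1A2 panel member.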
T4 sequence (P05177 whole entry): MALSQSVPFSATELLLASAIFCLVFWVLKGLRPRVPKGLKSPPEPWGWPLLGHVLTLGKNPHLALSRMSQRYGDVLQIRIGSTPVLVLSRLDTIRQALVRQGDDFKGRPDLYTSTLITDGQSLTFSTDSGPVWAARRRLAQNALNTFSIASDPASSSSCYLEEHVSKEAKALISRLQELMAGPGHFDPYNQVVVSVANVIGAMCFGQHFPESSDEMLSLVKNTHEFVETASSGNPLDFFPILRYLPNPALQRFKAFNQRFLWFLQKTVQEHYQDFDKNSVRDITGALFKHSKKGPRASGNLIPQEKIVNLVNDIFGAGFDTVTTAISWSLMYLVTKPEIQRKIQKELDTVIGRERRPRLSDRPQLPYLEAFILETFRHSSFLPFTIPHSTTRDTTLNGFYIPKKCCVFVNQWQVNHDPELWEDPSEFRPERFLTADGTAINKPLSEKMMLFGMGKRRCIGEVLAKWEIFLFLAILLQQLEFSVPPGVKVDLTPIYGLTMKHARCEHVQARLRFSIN

A further data set deals with Tumor necrosis factor (Homo sapiens, UniProt P01375). Nature of the data set: TNFa-triggered NF-kB activation inhibitors, SAR follow-up, cell-based, revised (AID 2337). The data set is classed as functional.
The test system of a further data set is HEK293. In words: cells. The conditions noted are these: Homo sapiens.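 Further: cells exposed to compound for 14 hours overnight before viability readout.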
Data set [4] concerns the target T5, DNA repair protein RAD52 homolog (Homo sapiens, UniProt P43351).
T5 sequence (P43351 whole entry): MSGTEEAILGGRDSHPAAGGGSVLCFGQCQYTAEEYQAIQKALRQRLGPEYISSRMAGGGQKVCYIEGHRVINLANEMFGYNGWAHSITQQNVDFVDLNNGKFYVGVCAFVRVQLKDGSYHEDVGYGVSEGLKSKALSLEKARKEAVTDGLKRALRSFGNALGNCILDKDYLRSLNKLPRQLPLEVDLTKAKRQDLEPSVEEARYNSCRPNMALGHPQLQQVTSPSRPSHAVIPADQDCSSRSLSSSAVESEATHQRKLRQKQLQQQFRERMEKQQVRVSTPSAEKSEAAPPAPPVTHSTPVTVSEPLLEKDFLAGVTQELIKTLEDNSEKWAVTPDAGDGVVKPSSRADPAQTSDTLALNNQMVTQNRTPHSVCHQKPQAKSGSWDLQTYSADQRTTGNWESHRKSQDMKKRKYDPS
The data set is classed as functional, biochemical.

For data set [5], the target named is T6, Corticotropin-releasing factor receptor 2/Corticotropin-releasing factor-binding protein (Homo sapiens, UniProt P24387+Q13324).
T6 sequence (Q13324 whole entry): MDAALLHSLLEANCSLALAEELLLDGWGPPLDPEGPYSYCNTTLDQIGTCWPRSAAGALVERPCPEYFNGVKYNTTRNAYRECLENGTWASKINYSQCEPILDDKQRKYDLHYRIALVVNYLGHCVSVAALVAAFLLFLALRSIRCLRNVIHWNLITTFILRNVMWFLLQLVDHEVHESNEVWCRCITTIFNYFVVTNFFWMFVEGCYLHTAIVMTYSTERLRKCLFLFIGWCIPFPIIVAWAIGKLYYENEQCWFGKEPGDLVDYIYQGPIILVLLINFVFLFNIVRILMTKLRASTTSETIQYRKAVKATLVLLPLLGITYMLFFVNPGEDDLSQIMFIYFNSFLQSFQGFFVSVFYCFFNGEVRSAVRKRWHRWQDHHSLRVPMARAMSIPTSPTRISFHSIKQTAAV
T6 sequence (P24387 whole entry): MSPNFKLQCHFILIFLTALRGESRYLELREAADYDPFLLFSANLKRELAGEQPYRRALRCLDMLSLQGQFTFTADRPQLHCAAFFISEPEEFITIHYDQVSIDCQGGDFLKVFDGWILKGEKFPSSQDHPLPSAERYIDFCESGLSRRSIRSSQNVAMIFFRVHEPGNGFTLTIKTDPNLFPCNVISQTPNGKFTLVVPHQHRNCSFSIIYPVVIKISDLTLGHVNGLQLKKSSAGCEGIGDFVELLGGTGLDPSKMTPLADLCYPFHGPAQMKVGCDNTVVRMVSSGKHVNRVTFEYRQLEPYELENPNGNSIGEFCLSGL
Nature of the data set: Dose Response confirmation of uHTS hits for small molecule antagonists of the CRF-binding protein and CRF-R2 receptor complex. The class given is functional. The note with it: read-out: IC50_Mean.

Data set [6] concerns the target T6, Corticotropin-releasing factor receptor 2/Corticotropin-releasing factor-binding protein. Nature of the data set: activators of CRF receptor 2 with binding protein – uHTS hits, confirmation (AID 602473). The class given is functional. The note with it: read-out: EC50_Mean.
A short description of data set [7]: CRF-BP/CRF-R2 complex antagonists, dose response, cell-based, uHTS hits, 384-well (AID 651639). The class given is functional, Homo sapiens. The conditions noted are these: read-out: IC50_Mean.
In the next data set the target is Cytochrome P450 2D6 (Homo sapiens, UniProt P10635).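 Further: CYP2D6 member of a cytochrome P450 panel assay.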
The target in another data set is Cytochrome P450 2C19 (Homo sapiens, UniProt P33261). In words: Cytochrome panel assay with activity outcomes. Panel member name: p450-cyp2c19 Compounds with AC50 equal or less than 10 uM are considered active. The data set is classed as functional.
Data set [8] in a line: inhibitors of firefly luciferase expression or activity, dose response, H4 neuroglioma cells, luminescence (AID 1990). The data set is classed as functional, cell-based.
Data set [9] in a line: Luminescence Cell-Based Dose Response HTS to Identify Inhibitors of 5'UTR Stem-Loop Driven Prion Protein mRNA Translation in H4 Neuroglioblastoma Cells. [Related pubchem assays: 1827 (Project Summary), 1813 (Primary HTS)]. The class given is functional.
Data set [10] in a line: inhibitors of SNCA 5'UTR-driven reporter translation, confirmation, H4 neuroglioma cells, luminescence (AID 1988). The class given is functional, cell-based.
For data set [11], the target named is Eukaryotic translation initiation factor 4E (Mus musculus, UniProt P63073). Nature of the data set: eIF4E–eIF4G protein interaction inhibitors, dose response, biochemical, TR-FRET (AID 855).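 Further: potency for disrupting eIF4E binding to eIF4GI seen as loss of FRET.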 The data set is classed as functional. For orientation: TR-FRET usually uses a lanthanide donor and a delayed reading to cut background.
Data set [12] concerns the target T2, Cytochrome P450 2C9. The source holds these as a separate data set.
Data set [13] in a line: inhibitors of intracellular T. cruzi replication, confirmation, NIH3T3 host cells, beta-gal luminescence (AID 2044).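 Further: intracellular parasites grown in NIH/3T3 mouse fibroblasts as host cells; luminescent beta-galactosidase reporter signal from transgenic T. cruzi replicating inside host cells; inhibitors lower the luminescence signal.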 The data set is classed as functional, cell-based.
A short description of data set [14]: cytotoxicity toward NIH3T3 fibroblasts, dose response, counter-screen, cell-based, ATP luminescence, mouse fibroblasts (AID 2010).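 Further: cells exposed to compound for about 90 hours before reading.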 The data set is classed as functional. The conditions noted are these: NIH3T3. (A counterscreen serves to expose hits that act by an unwanted route or on another target.)
Data set [15] deals with T1, Cytochrome P450 3A4. This is another data set of the same source.

For orientation: AC50 means the midpoint of the concentration-response curve, whichever way the signal moves.

The structures appear in SMILES notation. The source made the active and inactive calls.

T1 sequence (P08684 whole entry): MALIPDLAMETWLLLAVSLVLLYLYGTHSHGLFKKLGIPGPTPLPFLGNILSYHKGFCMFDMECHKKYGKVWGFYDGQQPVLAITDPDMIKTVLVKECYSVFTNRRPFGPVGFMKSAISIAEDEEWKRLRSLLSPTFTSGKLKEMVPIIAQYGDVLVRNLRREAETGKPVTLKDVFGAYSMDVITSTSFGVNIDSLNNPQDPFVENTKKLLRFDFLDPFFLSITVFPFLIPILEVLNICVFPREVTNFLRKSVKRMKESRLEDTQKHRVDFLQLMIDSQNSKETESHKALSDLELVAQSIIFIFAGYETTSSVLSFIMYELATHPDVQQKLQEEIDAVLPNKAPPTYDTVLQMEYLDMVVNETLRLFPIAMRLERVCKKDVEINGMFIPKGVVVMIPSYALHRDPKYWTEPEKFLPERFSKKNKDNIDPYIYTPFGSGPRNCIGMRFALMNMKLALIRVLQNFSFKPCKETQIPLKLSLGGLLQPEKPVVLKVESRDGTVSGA
T2 sequence (P11712 whole entry): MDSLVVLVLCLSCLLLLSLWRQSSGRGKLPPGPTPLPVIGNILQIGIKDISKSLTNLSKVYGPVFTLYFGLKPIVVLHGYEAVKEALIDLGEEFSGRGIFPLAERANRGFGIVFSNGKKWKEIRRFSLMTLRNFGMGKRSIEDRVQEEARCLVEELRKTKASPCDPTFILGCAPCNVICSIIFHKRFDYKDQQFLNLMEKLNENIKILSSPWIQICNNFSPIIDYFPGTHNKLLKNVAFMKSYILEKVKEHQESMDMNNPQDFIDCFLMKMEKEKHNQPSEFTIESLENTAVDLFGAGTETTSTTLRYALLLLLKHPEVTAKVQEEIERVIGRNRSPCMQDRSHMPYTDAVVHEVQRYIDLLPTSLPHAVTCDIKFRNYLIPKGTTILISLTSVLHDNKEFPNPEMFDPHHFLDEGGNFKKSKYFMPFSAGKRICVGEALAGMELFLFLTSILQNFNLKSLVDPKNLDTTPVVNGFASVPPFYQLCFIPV
Chain of Cytochrome P450 2D6 (P10635 whole entry): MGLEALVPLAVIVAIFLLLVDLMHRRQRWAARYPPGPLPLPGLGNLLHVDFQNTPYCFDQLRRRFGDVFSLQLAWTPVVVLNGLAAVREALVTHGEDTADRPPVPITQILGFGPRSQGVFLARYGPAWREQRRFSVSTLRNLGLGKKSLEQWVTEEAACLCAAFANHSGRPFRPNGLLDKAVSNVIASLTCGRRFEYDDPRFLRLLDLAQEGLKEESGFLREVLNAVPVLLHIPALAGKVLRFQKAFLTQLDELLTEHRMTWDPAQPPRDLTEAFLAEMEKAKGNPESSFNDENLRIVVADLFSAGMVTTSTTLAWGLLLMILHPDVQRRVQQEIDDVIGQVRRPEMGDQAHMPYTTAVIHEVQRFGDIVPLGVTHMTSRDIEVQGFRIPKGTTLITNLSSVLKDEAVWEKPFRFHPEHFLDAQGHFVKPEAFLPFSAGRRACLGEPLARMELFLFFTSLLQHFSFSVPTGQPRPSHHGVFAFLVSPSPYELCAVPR
Chain of Cytochrome P450 2C19 (P33261 whole entry): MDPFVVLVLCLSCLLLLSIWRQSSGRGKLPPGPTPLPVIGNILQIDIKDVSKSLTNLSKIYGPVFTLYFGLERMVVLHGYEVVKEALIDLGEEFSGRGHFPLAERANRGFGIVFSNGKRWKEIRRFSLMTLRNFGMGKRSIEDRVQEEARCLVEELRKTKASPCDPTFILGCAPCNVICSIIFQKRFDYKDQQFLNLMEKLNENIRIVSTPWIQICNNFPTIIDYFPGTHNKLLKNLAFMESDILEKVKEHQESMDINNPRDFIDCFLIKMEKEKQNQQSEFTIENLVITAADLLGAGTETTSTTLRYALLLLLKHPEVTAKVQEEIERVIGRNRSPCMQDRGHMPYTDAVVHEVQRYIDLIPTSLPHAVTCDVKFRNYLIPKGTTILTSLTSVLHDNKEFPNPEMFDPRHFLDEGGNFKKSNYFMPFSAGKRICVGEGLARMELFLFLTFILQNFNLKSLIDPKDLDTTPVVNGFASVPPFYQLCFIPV
Chain of Eukaryotic translation initiation factor 4E (P63073 whole entry): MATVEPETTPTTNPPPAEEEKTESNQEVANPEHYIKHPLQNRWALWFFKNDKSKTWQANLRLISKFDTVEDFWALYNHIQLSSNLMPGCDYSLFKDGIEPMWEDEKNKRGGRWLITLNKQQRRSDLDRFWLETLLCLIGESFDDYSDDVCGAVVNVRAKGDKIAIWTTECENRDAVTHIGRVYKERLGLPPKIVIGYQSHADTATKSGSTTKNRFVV
Chain of Tumor necrosis factor (P01375 whole entry): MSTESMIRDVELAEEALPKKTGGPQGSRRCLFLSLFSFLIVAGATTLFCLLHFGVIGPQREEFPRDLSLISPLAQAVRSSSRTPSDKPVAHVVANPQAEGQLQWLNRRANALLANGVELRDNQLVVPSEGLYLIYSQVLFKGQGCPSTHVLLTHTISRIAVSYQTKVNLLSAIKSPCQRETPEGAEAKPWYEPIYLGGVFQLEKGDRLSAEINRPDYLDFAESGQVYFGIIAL

With `O=C(O)[C@H]1CCN1`, the concentration at half-maximal activity (AC50) entry at Cytochrome P450 3A4 [1] and on Cytochrome P450 2C9 [2] was “inconclusive” throughout.
With `Cc1ccc2nc3c(cc(C(=O)NCCN4CCOCC4)c(=N)n3CCCN3CCOCC3)c(=O)n2c1`, the AC50 in [3] is 29.5 µM (active).
Take `Cc1cc2c(cc1C)-c1nnc(-c3ccc4ccccc4n3)n1C(C)(C)C2`: the AC50 at Cytochrome P450 1A2 was 5.01 µM (inconclusive); at Cytochrome P450 3A4 [1], “inconclusive”; on Cytochrome P450 2C9 [2] it was “inconclusive”.
For `CCC(=O)N1CCc2cc(S(=O)(=O)N3CCN(c4ccc([N+](=O)[O-])cc4)CC3)ccc21`, the IC50 on Tumor necrosis factor and with HEK293 was > 20 µM (inactive) throughout.
`CN(C)CCNC(=O)c1cccc(-c2cnc3c(NC=O)cc(-c4ccc(F)cc4)cn23)c1`: the concentration at half-maximal activity (AC50) was 17.7 µM (active) in data set [3] and 3.96 µM (active) in data set [4].
In the case of `CCOC(=O)c1cnc2c(C)cc(C)cc2c1NCCCN1CCOCC1`, the half-maximal activity concentration (AC50) in [3] is 5.48 µM (active); in data set [4] it was 11.4 µM (active).
Take `Cc1ccccc1NC(=O)Cc1nc(COC(=O)c2cc([N+](=O)[O-])ccc2NCCO)cs1`: the IC50 was 23.2 µM (active) in data set [5] and 13.8 µM (active) in [7]. Moreover, in data set [6], the EC50 was > 53 µM (inactive).
On to `CNC(=S)NNC(=O)COc1ccccc1C`, for which the AC50 result at Cytochrome P450 2D6 is given as “inconclusive”.
Consider `Nc1nc(Cl)cc(NCCO)n1`, for which the AC50 entry at Cytochrome P450 2C19 and on Cytochrome P450 2D6 was “inconclusive” each time.
On to `CN(C)CCNc1nc2c(c(=O)n(C)c(=O)n2C)n1C`, for which the AC50 entry at Cytochrome P450 2D6 is “inconclusive”.
On to `COc1ccc(-c2c(C)nn3c(N)c(C#N)cnc23)cc1OC`, for which the EC50 is 50.1 µM (active) in data set [8], > 120 µM (not active) in data set [9] and > 120 µM (not active) in data set [10]. Also, the IC50 in data set [11] was 50 µM (inactive).
`COC(=O)N1CCC2(CC1)CCN(C(c1ccccc1)c1ccccc1)CC2`: the AC50 is 39.8 µM (inconclusive) on Cytochrome P450 2C9 [12] and “inconclusive” on Cytochrome P450 3A4 [1].
On to `CC(C)COc1ccc(C(=O)Nc2scc(-c3ccc(Cl)cc3Cl)c2C(N)=O)cc1`, for which the EC50 in data set [13] was 1.76 µM (active); in data set [14], > 60 µM (not active). In addition, on Cytochrome P450 3A4 [1], the AC50 entry is “inconclusive”.
Take `CCN1C(=O)[C@H]2[C@H]3[C@H](O)[C@H](O)C/C(=N/OC[C@@H](C)[C@H](OCc4ccccc4)C(C)C)[C@@H]3CC[C@@H]2C1=O`: the AC50 on Cytochrome P450 3A4 [15] is 3.98 µM (inconclusive); at Cytochrome P450 2D6, “inconclusive”.
Consider `COc1ccc(C(C(=O)NC2CCCC2)N(C(=O)c2ccoc2C)c2cc(C)cc(C)c2)cc1` (stereo not given), for which the IC50 in data set [5] was 5.69 µM (active); in [7] it was > 20 µM (inactive). Moreover, the EC50 in [6] is > 53 µM (inactive).
`Cc1ccc(S(=O)(=O)c2nnn3c2nc(N2CCCCC2)c2ccccc23)cc1`: the values for the EC50 in [13], in data set [14] and in data set [6] were 1.14 µM (active), > 60 µM (inconclusive) and > 53 µM (inactive), respectively. The IC50 in [5] is 2.96 µM (active); in data set [7], 10 µM (active).
Consider `N#Cc1cccc(NC(=O)N2CCC3(CC2)CCN(C(=O)c2ccco2)CC3)c1`, for which the concentration at half-maximal activity (AC50) on Cytochrome P450 2C19 (read-out: AC50) is 20 µM (inconclusive); on Cytochrome P450 3A4 [1], “inconclusive”.
